Laboratory results as given in patent US20250073281A1, “LACTOBACILLUS REUTERI HAVING IMPROVED ANTI-AGING AND HAIR HEALTH ENHANCEMENT EFFECTS, AND APPLICATION THEREOF” (priority 2021, published 2025).
In brackets after ≈: the same amount, converted by molar mass. Where two headings read alike, the source gives them in different places.

Tested on: Lactobacillus reuteri VHProbi E18
Experiment: Antibiotic tolerance experiment, MIC by broth microdilution
Type: cell-based
Details: for MIC: antibiotic against Lactobacillus reuteri VHProbi E18
Protocol: The minimum inhibitory concentration (MIC) value of antibiotics against Lactobacillus reuteri VHProbi E18 was determined by the broth microdilution method.

[1] = Limosilactobacillus reuteri, read-out: MIC

| Compound | sensitivity of Lactobacillus reuteri VHProbi E18 to the antibiotic | MIC [1] [µg/mL] | MIC [µg/mL] |
| --- | --- | --- | --- |
| CC1(C)S[C@@H]2[C@H](NC(=O)[C@H](N)c3ccccc3)C(=O)N2[C@H]1C(=O)O [Ampicillin] | sensitive | 1 (≈ 2.86 µM) | – |
| CCC[C@@H]1C[C@@H](C(=O)N[C@@H]([C@H]2O[C@H](SC)[C@H](O)[C@@H](O)[C@H]2O)[C@H](C)Cl)N(C)C1 [Clindamycin] | – | 256 (≈ 602 µM) | – |
| CC[C@H]1OC(=O)[C@H](C)[C@@H](O[C@H]2C[C@@](C)(OC)[C@@H](O)[C@H](C)O2)[C@H](C)[C@@H](O[C@@H]2O[C@H](C)C[C@H](N(C)C)[C@H]2O)[C@](C)(O)C[C@@H](C)C(=O)[C@H](C)[C@@H](O)[C@]1(C)O [Erythromycin] | sensitive | 1 (≈ 1.36 µM) | – |
| [H]/N=C(/N)N[C@H]1[C@H](O)[C@@H](O)[C@H](O[C@@H]2O[C@@H](C)[C@](O)(C=O)[C@H]2O[C@@H]2O[C@@H](CO)[C@H](O)[C@@H](O)[C@@H]2NC)[C@@H](N/C(N)=N\[H])[C@@H]1O [Streptomycin] | – | 512 (≈ 880 µM) | – |
| CN(C)[C@@H]1C(O)=C(C(N)=O)C(=O)[C@@]2(O)C(O)=C3C(=O)c4c(O)cccc4[C@@](C)(O)[C@H]3C[C@@H]12 [Tetracycline] | – | 16 (≈ 36 µM) | – |
| Gentamicin | – | – | 256 |
